Test results taken from patent US11884651B1, “7-(4-((4-benzylidene-5-oxo-2-phenyl-4,5-dihydro-1H-imidazol-1-yl)methyl)piperazin-1-yl)-1-cyclopropyl-6-fluoro-4-oxo-1,4-dihydroquinoline-3-carboxylic acid as an anti-inflammatory compound” (KING FAISAL UNIVERSITY, priority 2023, dated 2024).

Key:
[1] = target: Bovine Serum Albumin (BSA) (Bos taurus, UniProt P02769); test: Bovine Serum Albumin Assay (BSA), inhibition of heat-induced protein denaturation (in vitro anti-inflammatory activity); format: biochemical
Sequence of Bovine Serum Albumin (BSA) (P02769 25-607): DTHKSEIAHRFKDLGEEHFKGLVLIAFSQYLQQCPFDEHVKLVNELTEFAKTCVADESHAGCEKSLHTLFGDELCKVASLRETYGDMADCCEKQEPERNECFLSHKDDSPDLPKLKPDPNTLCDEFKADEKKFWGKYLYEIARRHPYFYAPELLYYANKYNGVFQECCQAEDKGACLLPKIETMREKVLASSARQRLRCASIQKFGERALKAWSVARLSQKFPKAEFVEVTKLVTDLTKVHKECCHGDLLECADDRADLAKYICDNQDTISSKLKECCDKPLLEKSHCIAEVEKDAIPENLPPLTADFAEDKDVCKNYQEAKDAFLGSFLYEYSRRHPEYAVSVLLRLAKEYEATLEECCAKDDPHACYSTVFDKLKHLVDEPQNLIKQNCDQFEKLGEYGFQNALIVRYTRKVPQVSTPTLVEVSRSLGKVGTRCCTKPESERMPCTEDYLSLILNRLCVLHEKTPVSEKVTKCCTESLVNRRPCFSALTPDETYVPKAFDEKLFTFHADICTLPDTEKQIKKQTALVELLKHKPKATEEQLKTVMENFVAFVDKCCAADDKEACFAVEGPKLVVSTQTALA
Procedure: Bovine Serum Albumin Assay (BSA) In vitro-inflammatory activities of the tested samples were determined using a modified method of the BSA assay reported by Williams et al. BSA solution (0.4%, w/v) was prepared in Tris Buffered Saline. The pH was adjusted to 6.4 with glacial acetic acid. Different dilutions of 20, 40, 60, 80, and 100 pg/mL of the stock solutions of 7-(4((4-benzylidene-5-oxo-2-phenyl-4,5-dihydro-1H-imidazol-1-yl)methyl)piperazin-1-yl)-1-cyclopropyl-6-fluoro-4-oxo-1,4-dihydroquinoline-3-carboxylic acid (4) were added to test tubes containing 1 mL of 0.4%, w/v BSA buffer solution. Both negative (solvent) and positive (aspirin) controls were assayed in a similar manner. The solutions were then heated in a water bath at 72° C. for 10 minutes and cooled for 20 minutes under laboratory conditions. The turbidity of the solutions (level of protein precipitation) was measured at 660 nm in Spectrophotometer (V-770 UV-Visible/NIR Spectrophotometer). The percentage inhibition of precipitation (protein denaturation) was determined relative to the negative control using the following equation: [formula] [formula]

Row | SMILES | melting point [°C] | in vitro anti-inflammatory activity (result in words) ([1]; BSA assay) | percentage inhibition of precipitation (protein denaturation) ([1]; bovine, 10 min, 100 pg/mL, pH 6.4) [%] | percentage inhibition of precipitation (protein denaturation) ([1]; 100 pg/ml (concentration printed for aspirin), 0.4% w/v BSA, pH 6.4, 72° C. for 10 minutes, turbidity at 660 nm, relative to negative control) [%]
1 | O=C(O)c1cn(C2CC2)c2cc(N3CCN(CN4C(=O)/C(=C\c5ccccc5)N=C4c4ccccc4)CC3)c(F)cc2c1=O [Compound 4, 7-(4-((4-benzylidene-5-oxo-2-phenyl-4,5-dihydro-1H-imidazol-1-yl)methyl)piperazin-1-yl)-1-cyclopropyl-6-fluoro-4-oxo-1,4-dihydroquinoline-3-carboxylic acid] | 232 to 234 | considerable anti-inflammatory effect | 84.78 | 
2 | CC(=O)Oc1ccccc1C(=O)O [aspirin, reference compound] |  |  |  | 90.75
